One experiment deals with NHE1. The settings on record: Cuello 2007; cited from earlier work.
For experiment [1], the system named is neonatal rat ventricular myocytes. Put plainly: Hypertrophy of cultured neonatal rat ventricular myocytes (cross-section area, ANF expression). The following applies: for agonist-induced myocyte hypertrophy: pan-RSK inhibitors, neonatal myocytes. In kind it is cell-based. The protocol: Neonatal rat myocytes isolation and culture: 1-3 day old Sprague-Dawley rats were decapitated and the excised hearts placed in 1×ADS Buffer (116 mmol/L NaCl, 20 mmol/L HEPES, 1 mmol/L NaH2PO4, 5.5 mmol/L glucose, 5.4 mmol/L KCl, 0.8 mmol/L MgSO4, pH 7.35). The atria were carefully removed and the blood washed away. The ventricles were minced and incubated with 15 mL 1×ADS Buffer containing 3.3 mg type II collagenase (Worthington, 230 U/mg) and 9 mg Pancreatin (Sigma) at 37° C. while shaking at 80 RPM. After 15 minutes, the dissociated cardiac myocytes were separated by centrifugation at 50×g for 1 minute, resuspended in 4 mL horse serum and incubated 37° C. with occasional agitation. The steps for enzymatic digestion and isolation of myocytes were repeated 10-12 times to maximize yield. The myocytes were pooled and spun down again at 50×g for 2 minutes and resuspended in Maintenance Medium (DMEM:M199, 4:1) supplemented with 10% horse serum and 5% fetal bovine serum. To remove any contaminating fibroblasts, the cells were pre-plated for 1 hour before plating on gelatin-coated tissue culture plasticware. This procedure yields >90% pure cardiac myocytes. After 1 day in culture, the media was changed to maintenance medium containing 0.1 mmol/L bromodeoxyuridine to suppress fibroblast growth.
Experiments were initiated 1 day after myocyte isolation. Adenoviral infection was performed by addition of adenovirus (multiplicity of infection=5-50) to the media. Plasmids and siRNA oligonucleotides were transfected using Transfast (Promega) and Dharmafect (Thermofisher), respectively, as recommended by the manufacturers using cells cultured in maintenance medium supplemented with 4% horse serum. Starting the day after gene transduction, the cells were treated for as long as 2 days, as indicated for each experiment. […]
Morphometry: Morphometric data was acquired using IPLab Software. […] For adult mouse cardiac myocytes, the maximum lengths perpendicular (width) or parallel (length) to the myofibrils were measured for >100 freshly dissociated myocytes per heart.

Experiment [2] has as its system Noonan syndrome mouse model. The settings on record: Wu 2011; cited from earlier work.
The test system of a further experiment is RSK. Put plainly: RSK activation in neonatal rat ventricular myocytes (pan-RSK S218 phospho-specific antibody). In kind it is cell-based. The settings on record: α-adrenergic stimulation, MEK1/2- and MEK5-dependent. The text has this: RSK family members can be activated in most cell types by ERK, but not c-Jun N-terminal kinases or p38 (Anjum 2008). ERK phosphorylation is permissive for PDK1 phosphorylation of the RSK N-terminal kinase domain, such that PDK1 phosphorylation of RSK S^218 is indicative of full activation of the enzyme (FIG. 4A of U.S. Pat. No. 9,132,174). […] The α-adrenergic stimulation with phenylephrine (PE) induced RSK phosphorylation 3-fold by both MEK1/2-dependent (that activates ERK1/2) and MEK5-dependent (that activates ERK5) mechanisms (FIG. 22 of U.S. Pat. No. 9,132,174).

Another experiment has as its system RSK3 and mAKAPβ. Put plainly: Co-immunoprecipitation of endogenous RSK3 with mAKAPβ in neonatal myocytes. Type of experiment: cell-based, rat. The settings on record: expressed in neonatal myocytes. The protocol:
Immunoprecipitations: HEK293 and COS-7 cells were transfected with Lipofectamine 2000 (Invitrogen) or Polyethylenimine “Max” (Polysciences). Cells (including myocytes) were lysed in buffer (20 mmol/L HEPES, pH 7.4, 150 mmol/L NaCl, 5 mmol/L EDTA, 0.5% Triton, 50 mmol/L NaF, 1 mmol/L sodium orthovanadate, 1 mmol/L DTT, and protease inhibitors). After centrifugation at 10,000×g for 10 minutes at 4° C., the clarified extracts were used for immunoprecipitation using appropriate antibodies (10 μg purified antibody or 1-5 μL whole serum) and 20 μL protein G sepharose (Millipore, Fastflow) for 3 hours to overnight at 4° C. The beads were washed 3-5 times with lysis buffer, and the immunoprecipitated proteins were eluted with 1× Laemmli buffer for western blotting. Western blots were developed using horseradish peroxidase-conjugated donkey secondary antibodies, Supersignal West Chemiluminescent Substrates (Thermo Scientific) and X-ray film or a Fujifilm LAS-3000 imaging system.
B. Transfected myocytes expressing GFP or GFP-RBD (green) were stained with α-actinin (blue) and ANF (red) antibodies. Bar=20 μm. C. Cross-section area of myocytes. n=5. D. Fraction of myocytes expressing ANF. n=3. * p-values comparing to GFP-expressing samples. † p-values comparing to no agonist control.

For another experiment, the system named is wildtype mice. Put plainly: Transverse aortic constriction (2 week TAC) after AAV9 injection. Type of experiment: in vivo, mouse. The settings on record: AAV9 injected into neonatal mice, 2 week TAC at 8 weeks of age. The text has this:
Transverse Aortic Constriction: All tools were sterilized with a Germinator 500 Dry Sterilizer and Betadine Solution (10% povidone-iodine topical solution). Anesthesia was induced with 5% isoflurane and maintained with 2% isoflurane and 100% oxygen at a flow rate of 1.5 L/min using a SurgiVet flow regulator via nose cone. Loss of consciousness was verified by toe pinch. Mouse fur over the left chest and sternum was removed with a calcium hydroxide lotion (e.g. Nair), and the surgical site was sterilized with betadine. The skin was incised exposing the pectoralis muscle and the second left intercostal space. […] The lobes of the thymus were retracted to reveal the transverse aortic arch as well as the right innominate and left common carotid arteries. […]
Echocardiography: Mice minimally anesthetized with 1-2% isoflurane were studied using a Vevo 770®, High-Resolution Imaging System (VisualSonics). The pressure gradient following TAC was calculated from the pulse wave Doppler velocity at the point of ligation as follows: P=4v^2; P=the induced pressure gradient (in mmHg) and v=the velocity across the constriction (in m/s).^7
AAV9 containing the indicated CIS plasmid encoding myc-GFP-mAKAP 1694-1833 were injected into neonatal wildtype mice. 2 week TAC was performed and analyzed as above at 8 weeks of age. […]

On to `Cc1ccc(-c2c(C(=O)CF)n(CCCO)c3ncnc(N)c23)cc1` [fmk], for which the “α-adrenergic-induced NHE1 phosphorylation” value with NHE1 was “blocked”. For `CC(C)CCN1c2nc(Nc3cc(F)c(O)c(F)c3)ncc2N(C)C(=O)C1C` (centres unmarked) [BI-D1870], the agonist-induced myocyte hypertrophy result in experiment [1] was “inhibited”. For `O=C(NOC[C@H](O)CO)c1ccc(F)c(F)c1Nc1ccc(I)cc1F` [PD0325901], the “progression of cardiac hypertrophy cardiomyopathy and other Noonan characteristics” value in experiment [2] is “attenuated progression”. In the experiment on RSK, `CNC[C@H](O)c1cccc(O)c1` [phenylephrine] had an RSK phosphorylation induced of 3 fold. Turning to `CC(=O)OC1C(C)OC(Oc2c(-c3ccc(O)cc3)oc3cc(O)cc(O)c3c2=O)C(O)C1OC(C)=O` (centres unmarked) [SL0101], the agonist-induced myocyte hypertrophy entry in experiment [1] was “inhibited”.

B1: green fluorescent protein—mAKAP RBD fusion protein: GFP fused to the mAKAP RSK3 binding domain (mAKAP residues 1694 to 1833), an anchoring disruptor (protein)
chain: ELSLCSEDIVLHKNKIPESNASFRKRLNRSVADESDVNVSMIVNVSCTSACTDDEDDSDLLSSSTLTLTEEELCLKDEDDDSSIATDDEIYEESNLMSGLDYIKNELQTWIRPKLSLTREKKRSGVTDEIKVNKDGGGNE
modifications: left off: small tags and cut ends; large carriers
For B1, in experiment [1] (expressed in neonatal myocytes, phenylephrine), the PE-induced hypertrophy entry is listed as “markedly inhibited”. In addition, in the experiment with RSK3 and mAKAPβ, the “association of endogenous RSK3 and mAKAPβ” value is given as “competed the association”.

B2: myc-GFP-mAKAP 1694-1833: myc-GFP-tagged mAKAP 1694-1833 expressed in vivo from AAV9 (protein)
chain: ELSLCSEDIVLHKNKIPESNASFRKRLNRSVADESDVNVSMIVNVSCTSACTDDEDDSDLLSSSTLTLTEEELCLKDEDDDSSIATDDEIYEESNLMSGLDYIKNELQTWIRPKLSLTREKKRSGVTDEIKVNKDGGGNE
modifications: left off: small tags and cut ends; large carriers
notes: myc-GFP-tagged mAKAP 1694-1833 expressed in vivo from AAV9
On to B2, for which the “concentric hypertrophy in vivo in the adult heart” value in the experiment on wildtype mice is recorded as “inhibited concentric hypertrophy”.
